Assay results taken from patent US20050090529A1, “3,5 Disubstituted indazole compounds with nitrogen-bearing 5-membered heterocycles, pharmaceutical compositions, and methods for mediating or inhibiting cell proliferation” (PFIZER INC, priority 2003, published 2005).
≈ marks a conversion by molar mass, not a printed value.

Columns and labels:
[1] = biological target: T1, CDK2/Cyclin A (Homo sapiens, UniProt P24941); assay: Inhibition of CDK2/Cyclin A retinoblastoma kinase activity (apparent Ki); assay type: biochemical; settings: read-out: CDK2 Ki
T1 construct: made in house; host or cells: CDK2: insect cells (baculovirus); cyclin A: E. coli
Protocol: Cyclin-dependent kinase activity was measured by quantifying the enzyme-catalyzed, time-dependent incorporation of radioactive phosphate from [^32P]ATP or [^33P]ATP into a protein substrate. […] Reactions were initiated with enzyme, incubated at 30° C., and terminated after 20 minutes by the addition of ethylenediaminetetraacetic acid (EDTA) to 250 mM. […] Radioactivity was quantified by exposing the dried membranes to a phosphorimager.
Apparent Ki values were measured by assaying enzyme activity in the presence of different inhibitor compound concentrations and subtracting the background radioactivity measured in the absence of enzyme. Inhibition data were fit to an equation for competitive inhibition using Kaleidagraph (Synergy Software), or were fit to an equation for competitive tight-binding inhibition using the software KineTic (BioKin, Ltd.).
A complex of CDK2 and proteolyzed cyclin A was prepared and purified by gel filtration. […] Ki values were measured as described above.

[2] = Measurement of kinetic solubility; settings: 100 mM sodium phosphate buffer, pH 6.5, aqueous buffer, kinetic from dmso stock
Protocol: Kinetic solubility was determined with a […] stock solution from the compound(s) of interest. […] Samples and standards were then centrifuged and an aliquot was removed for HPLC analysis. Samples and standards were analyzed by HPLC and a final concentration for the sample was determined based on a one-point calibration curve from the corresponding standard. Results were reported as μg's/mL.

SMILES	Ki [1]	solubility [2]
CCNCc1cncc(-c2ccc3[nH]nc(-c4nc(C(=O)NC5CC6CCC(C5)N6)c[nH]4)c3c2)c1C (stereo not drawn) [Example 77, N-8-azabicyclo[3.2.1]oct-3-yl-2-(5-{5-[(ethylamino)methyl]-4-methylpyridin-3-yl}-1H-indazol-3-yl)-1H-imidazole-5-carboxamide]	> 200 nM	> 120 µg/mL
CCNCc1cncc(-c2ccc3[nH]nc(-c4nc(-c5ccccc5)c(C(=O)NC)[nH]4)c3c2)c1C [Example 6, 2-[5-(5-Ethylaminomethyl-4-methyl-pyridin-3-yl)-1H-indazol-3-yl]-5-phenyl-3H-imidazole-4-carboxylic acid methylamide]	50 to 200 nM	
CCNCc1cncc(-c2ccc3[nH]nc(-c4nnn[nH]4)c3c2)c1C [Example 91, Ethyl-{4-methyl-5-[3-(1H-tetrazol-5-yl)-1H-indazol-5-yl]-pyridin-3-ylmethyl}-amine]	> 200 nM	
CCNCc1cncc(-c2ccc3[nH]nc(-c4nc(-c5ccccc5)c(C(=O)NCCCO)[nH]4)c3c2)c1C [Example 17, 2-[5-(5-Ethylaminomethyl-4-methyl-pyridin-3-yl)-1H-indazol-3-yl]-5-phenyl-3H-imidazole-4-carboxylic acid (3-hydroxy-propyl)-amide]	50 to 200 nM	
CCNCc1cncc(-c2ccc3[nH]nc(-c4nc(-c5ccccc5)c(C(=O)NCCN(C)C)[nH]4)c3c2)c1C [Example 16, 2-[5-(5-Ethylaminomethyl-4-methyl-pyridin-3-yl)-1H-indazol-3-yl]-5-phenyl-3H-imidazole-4-carboxylic acid (2-dimethylamino-ethyl)-amide]	> 200 nM	
Cc1c(N)cncc1-c1ccc2[nH]nc(-c3nc(-c4ccccc4)c[nH]3)c2c1 [Example 39, 4-Methyl-5-[3-(4-phenyl-1H-imidazol-2-yl)-1H-indazol-5-yl]-pyridin-3-ylamine]	< 50 nM	
CCNCc1cncc(-c2ccc3[nH]nc(-c4ncc(C(=O)N(CCN(C)C)Cc5ccccc5)[nH]4)c3c2)c1C [Example 81, N-benzyl-N-[2-(dimethylamino)ethyl]-2-(5-{5-[(ethylamino)methyl]-4-methylpyridin-3-yl}-1H-indazol-3-yl)-1H-imidazole-5-carboxamide]	< 50 nM	
CCNCc1cncc(-c2ccc3[nH]nc(-c4ncc(C(=O)N(C)C5CCN(Cc6ccccc6)C5)[nH]4)c3c2)c1C (stereo not drawn) [Example 82, N-(1-benzylpyrrolidin-3-yl)-2-(5-{5-[(ethylamino)methyl]-4-methylpyridin-3-yl}-1H-indazol-3yl)-N-methyl-1H-imidazole-5-carboxamide]	< 50 nM	
CNCc1cncc(-c2ccc3[nH]nc(-c4nc(C)c[nH]4)c3c2)c1C [Example 93, N-methyl-1-{4-methyl-5-[3-(4-methyl-1H-imidazol-2-yl)-1H-indazol-5-yl]pyridin-3-yl}methanamine]	< 50 nM	
CCNCc1cncc(-c2ccc3[nH]nc(-c4ncc(C(=O)N(C)C5CCN(C)C5)[nH]4)c3c2)c1C (stereo not drawn) [Example 84, 2-(5-{5-[(ethylamino)methyl]-4-methylpyridin-3-yl}-1H-indazol-3-yl)-N-methyl-N-(1-methylpyrrolidin-3-yl)-1H-imidazole-5-carboxamide]	50 to 200 nM	
CCNCc1cncc(-c2ccc3[nH]nc(-c4ncc(C(=O)NCCC5=CCCCC5)[nH]4)c3c2)c1C [Example 80, N-(2-cyclohex-1-en-1-ylethyl)-2-(5-{5-[(ethylamino)methyl]-4-methylpyridin-3-yl}-1H-indazol-3-yl)-1H-imidazole-5-carboxamide]	< 50 nM	
CCNCc1cncc(-c2ccc3[nH]nc(-c4ocnc4C)c3c2)c1C [Example 88, N-({4-methyl-5-[3-(4-methyl-1,3-oxazol-5-yl)-1H-indazol-5-yl]pyridin-3-yl}methyl)ethanamine]	> 200 nM	
Cc1c(N)cncc1-c1ccc2[nH]nc(-c3nc(-c4ccc(F)cc4)c[nH]3)c2c1 [Example 40, 5-{3-[4-(4-Fluoro-phenyl)-1H-imidazol-2-yl]-1H-indazol-5-yl}-4-methyl-pyridin-3-ylamine]	< 50 nM	

The next lines start with the values.

Ki [1]	solubility [2]	SMILES
< 50 nM	> 120 µg/mL	CCNCc1cncc(-c2ccc3[nH]nc(-c4nc(C(=O)NCC)c[nH]4)c3c2)c1C [Example 63, N-ethyl-2-(5-{5-[(ethylamino)methyl]-4-methylpyridin-3-yl}-1H-indazol-3-yl)-1H-imidazole-5-carboxamide]
< 50 nM	> 120 µg/mL	CCNCc1cncc(-c2ccc3[nH]nc(-c4nc(CC)c(C)[nH]4)c3c2)c1C [Example 23, Ethyl-{5-[3-(4-ethyl-5-methyl-1H-imidazol-2-yl)-1H-indazol-5-yl]-4-methyl-pyridin-3-ylmethyl}-amine]
< 50 nM	20 to 120 µg/mL (≈ 49 to 294 µM)	CCNCc1cncc(-c2ccc3[nH]nc(-c4nc(-c5ccccc5)c[nH]4)c3c2)c1C [Example 30, Ethyl-{4-methyl-5-[3-(4-phenyl-1H-imidazol-2-yl)-1H-indazol-5-yl]-pyridin-3-ylmethyl}-amine]
< 50 nM	> 120 µg/mL	CCNCc1cncc(-c2ccc3[nH]nc(-c4nc(C)c(C)[nH]4)c3c2)c1C [Example 24, {5-[3-(4,5-Dimethyl-1H-imidazol-2-yl)-1H-indazol-5-yl]-4-methyl-pyridin-3-ylmethyl}-ethyl-amine]
< 50 nM	> 120 µg/mL	Cc1c(CNC(C)C)cncc1-c1ccc2[nH]nc(-c3ncc[nH]3)c2c1 [Example 48, {5-[3-(1H-Imidazol-2-yl)-1H-indazol-5-yl]-4-methyl-pyridin-3-ylmethyl}-isopropyl-amine]
< 50 nM	20 to 120 µg/mL (≈ 40.7 to 244 µM)	CCNCc1cncc(-c2ccc3[nH]nc(-c4ncc(C(=O)N[C@H]5CCc6ccccc65)[nH]4)c3c2)c1C [Example 53, N-[(1S)-2,3-dihydro-1H-inden-1-yl]-2-(5-{5-[(ethylamino)methyl]-4-methylpyridin-3-yl]-1H-indazol-3-yl)-1H-imidazole-5-carboxamide]
< 50 nM	20 to 120 µg/mL (≈ 38.6 to 232 µM)	CCNCc1cncc(-c2ccc3[nH]nc(-c4ncc(C(=O)N5CC=C(c6ccccc6)CC5)[nH]4)c3c2)c1C [Example 67, N-{[4-methyl-5-(3-{5-[(4-phenyl-3,6-dihydropyridin-1(2H)-yl)carbonyl]-1H-imidazol-2-yl}-1H-indazol-5-yl)pyridin-3-yl]methyl}ethanamine]
< 50 nM	20 to 120 µg/mL (≈ 47.3 to 284 µM)	CCNCc1cncc(-c2ccc3[nH]nc(-c4nc(-c5ccccc5)c(C)[nH]4)c3c2)c1C [Example 29, Ethyl-{4-methyl-5-[3-(5-methyl-4-phenyl-1H-imidazol-2-yl)-1H-indazol-5-yl]-pyridin-3-ylmethyl}-amine]
< 50 nM	> 120 µg/mL	CCNCc1cncc(-c2ccc3[nH]nc(-c4ncc(C(=O)N5CCOCC5)[nH]4)c3c2)c1C [Example 55, N-[(4-methyl-5-{3-[5-(morpholin-4-ylcarbonyl)-1H-imidazol-2-yl]-1H-indazol-5-yl}pyridin-3-yl)methyl]ethanamine]
< 50 nM		CCNCc1cncc(-c2ccc3[nH]nc(-c4ncc(C(=O)N5CCN(c6ccccc6)CC5)[nH]4)c3c2)c1C [Example 59, N-{[4-methyl-5-(3-{5-[(4-phenylpiperazin-1-yl)carbonyl]-1H-imidazol-2-yl}-1H-indazol-5-yl)pyridin-3-yl]methyl}ethanamine]
< 50 nM		CCNCc1cncc(-c2ccc3[nH]nc(-c4ncc(C(=O)N5CCCC(Cc6ncccn6)CC5)[nH]4)c3c2)c1C (stereo not drawn) [Example 79, N-({4-methyl-5-[3-(5-{[4-(pyrimidin-2-ylmethyl)azepan-1-yl]carbonyl}-1H-imidazol-2-yl)-1H-indazol-5-yl]pyridin-3-yl}methyl)ethanamine]
< 50 nM		CCNCc1cncc(-c2ccc3[nH]nc(-c4ncc(C(=O)N5C[C@@H](C)O[C@@H](C)C5)[nH]4)c3c2)c1C [Example 60, N-({5-[3-(5-{[(2R,6S)-2,6-dimethylmorpholin-4-yl]carbonyl}-1H-imidazol-2-yl)-1H-indazol-5-yl]-4-methylpyridin-3-yl}methyl)ethanamine]
< 50 nM		CCNCc1cncc(-c2ccc3[nH]nc(-c4ncc(C(=O)N5CCN(CCOC)CC5)[nH]4)c3c2)c1C [Example 78, N-({5-[3-(5-{[4-(2-methoxyethyl)piperazin-1-yl]carbonyl}-1H-imidazol-2-yl)-1H-indazol-5-yl]-4-methylpyridin-3-yl}methyl)ethanamine]
< 50 nM		CCc1nc(-c2n[nH]c3ccc(-c4cncc(N)c4C)cc23)[nH]c1CC [Example 37, 5-[3-(4,5-Diethyl-1H-imidazol-2-yl)-1H-indazol-5-yl]-4-methyl-pyridin-3-ylamine]
< 50 nM		Cc1c(N)cncc1-c1ccc2[nH]nc(-c3nc4c([nH]3)CCCC4)c2c1 [Example 36, 4-Methyl-5-[3-(4,5,6,7-tetrahydro-1H-benzoimidazol-2-yl)-1H-indazol-5-yl]-pyridin-3-ylamine]
< 50 nM		CCNCc1cncc(-c2ccc3[nH]nc(-c4nc(C(=O)NC5CCCC5)c[nH]4)c3c2)c1C [Example 58, N-cyclopentyl-2-(5-{5-[(ethylamino)methyl]-4-methylpyridin-3-yl}-1H-indazol-3-yl)-1H-imidazole-5-carboxamide]
